From ChEMBL document CHEMBL1201862, “PubChem BioAssay data set” (2004)
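Interpolation was linear, between the two tested concentrations surrounding the appropriate level; five concentrations were tested over 48 hours in 96-well plates. The concentration for 50% growth inhibition is given as GI50.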 Active and inactive are the calls of the source. Rule as the data show it: active = GI50 up to about 1.1 µM and inactive = higher.

What was measured:
Test in all cases: NCI anticancer screen, dose series, 48 h
BT-549 = tested on: BT-549
MDA-N = tested on: MDA-N
DLD-1 = tested on: DLD-1
KM-20L2 = tested on: KM-20L2
SNB-78 = tested on: SNB-78
DMS-114 = tested on: DMS-114
LXFL 529 = tested on: LXFL 529
RXF 631 = tested on: RXF 631

Measured: GI50

CCOC(=O)C(NC(C)=O)(Nc1ccc(F)cc1)C(F)(F)F (stereo not given)
inactive: BT-549 > 100 µM | MDA-N 4.75 µM

C=CCn1c2ccccc2c2c(C)c3cnccc3c(C)c21
inactive: DLD-1 7.08 µM | KM-20L2 6.75 µM | SNB-78 22.3 µM

COC(=O)C1=C(O)C(C(=O)OC)[C@@]2(O)[C@@H](C(=O)OC)CC[C@@H]1[C@@H]2C(=O)OC (stereo not given in full)
inactive: BT-549 25.5 µM

COc1cc(/C=C(/C#N)C(N)=O)ccc1O
inactive: DLD-1 > 100 µM | DMS-114 > 100 µM | KM-20L2 > 100 µM | SNB-78 > 100 µM

Cn1cnc(/C=C/C#N)c1
inactive: BT-549 > 100 µM | MDA-N > 100 µM

COc1nc(N)c(C(=O)CCl)c(=O)n1C
inactive: DLD-1 13.2 µM | DMS-114 16.8 µM | KM-20L2 18.3 µM | LXFL 529 13.6 µM | RXF 631 15.3 µM | SNB-78 12 µM

CC1(C23CC4CC(CC(C4)C2)C3)n2c(=O)n(-c3ccccc3)c(=O)n2C1(C)C12CC3CC(CC(C3)C1)C2 (stereo not given)
inactive: BT-549 > 100 µM | MDA-N > 100 µM

C=CC12CN(C)C3C4COC(CC41)C1(C(=O)Nc4ccccc41)C32 (stereo not given)
inactive: DLD-1 198 µM | DMS-114 > 144 µM | KM-20L2 > 151 µM | SNB-78 176 µM

O=C(O)CN(CC(=O)O)C1CCCCC1N(CC(=O)O)CC(=O)NCCN=C=S (stereo not given)
inactive: BT-549 > 100 µM | MDA-N > 100 µM

CC(C)(C)C1(c2ccc(C3(c4ccccc4)Oc4ccccc4S3)[nH]2)Oc2ccccc2S1 (stereo not given)
inactive: DLD-1 > 100 µM | DMS-114 > 100 µM | KM-20L2 > 100 µM | LXFL 529 > 100 µM | RXF 631 > 100 µM | SNB-78 > 100 µM

COc1ccc(C(=O)c2c(-c3ccccc3NC(=O)C(F)(F)F)[nH]c3ccccc23)cc1
inactive: BT-549 14.5 µM | MDA-N 15.3 µM

N/C(=N\O)N/N=C\c1c(O)cc(O)cc1O
inactive: DLD-1 > 82.8 µM | DMS-114 44.2 µM | KM-20L2 > 100 µM | SNB-78 > 100 µM

Cc1[nH]c(=O)[nH]c(=O)c1/C=C/C(=O)NC(CO)C[S+]([O-])Cc1ccccc1 (stereo not given)
inactive: DLD-1 > 300 µM | DMS-114 > 300 µM | KM-20L2 > 300 µM | SNB-78 > 300 µM

COc1cccc(NC(=O)N/C(=C/c2ccc(N(CCC#N)CCC#N)cc2)NC(=O)c2cc([N+](=O)[O-])ccc2Cl)c1
inactive: DLD-1 89.5 µM | DMS-114 37.2 µM | KM-20L2 > 100 µM | LXFL 529 > 100 µM | RXF 631 > 100 µM | SNB-78 > 100 µM

CCOC(=O)/C(=N/Nc1ccc(C)cc1)N1C(=S)N(C)N=C(C)C=C1S
inactive: BT-549 23.1 µM

COc1cc2c(cc1OC)C1Cc3sccc3CN1CC2 (stereo not given)
inactive: DLD-1 > 100 µM | DMS-114 > 100 µM | KM-20L2 > 100 µM | LXFL 529 > 100 µM | RXF 631 > 100 µM | SNB-78 > 100 µM

O=C1c2ccccc2OCC1/C=N/O (stereo not given)
inactive: DLD-1 > 91.4 µM | DMS-114 36.4 µM | SNB-78 > 72.9 µM

O=c1c(Cc2ccc(Cc3c(O)oc4ccccc4c3=O)cc2)c(O)oc2ccccc12
inactive: BT-549 > 100 µM | MDA-N > 100 µM
